Where two headings read alike, the source gives them in different places.
Legend:
CDK4-CYCLIND1 = CDK4-CYCLIND1 (Homo sapiens, UniProt P11802); experiment: Microfluidic LabChip kinase inhibition assay, CDK4-CyclinD1; settings: 200 μM ATP
CDK6-CYCLIND3 = target: T1, CDK6-CYCLIND3 (Homo sapiens, UniProt Q00534); experiment: Microfluidic LabChip kinase inhibition assay, CDK6-CyclinD3; assay type: biochemical; settings: 300 μM ATP
T1 construct: purchased Carna

[1] = CDK4 IC50 (μM), Table 2, 1 nM enzyme
[2] = Table 2, 2 nM enzyme, read-out: CDK6 IC50

CDK4-CYCLIND1, sequence (P11802 whole entry): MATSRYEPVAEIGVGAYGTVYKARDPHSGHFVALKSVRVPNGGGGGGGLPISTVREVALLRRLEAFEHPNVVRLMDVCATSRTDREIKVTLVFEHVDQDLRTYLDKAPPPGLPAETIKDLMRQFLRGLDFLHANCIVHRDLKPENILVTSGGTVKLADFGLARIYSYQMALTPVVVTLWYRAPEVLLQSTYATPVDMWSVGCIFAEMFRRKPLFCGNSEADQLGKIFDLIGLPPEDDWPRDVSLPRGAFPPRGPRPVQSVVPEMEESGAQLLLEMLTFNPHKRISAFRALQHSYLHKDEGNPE
CDK4-CYCLIND1, sequence (P24385 whole entry partner): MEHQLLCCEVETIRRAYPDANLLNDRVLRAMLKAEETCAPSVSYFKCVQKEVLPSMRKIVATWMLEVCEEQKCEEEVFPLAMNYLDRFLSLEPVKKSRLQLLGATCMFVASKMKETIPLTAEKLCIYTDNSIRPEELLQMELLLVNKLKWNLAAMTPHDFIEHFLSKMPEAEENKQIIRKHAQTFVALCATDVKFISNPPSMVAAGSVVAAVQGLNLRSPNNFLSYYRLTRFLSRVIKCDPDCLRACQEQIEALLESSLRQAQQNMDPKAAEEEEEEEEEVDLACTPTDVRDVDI
T1 sequence (Q00534 whole entry): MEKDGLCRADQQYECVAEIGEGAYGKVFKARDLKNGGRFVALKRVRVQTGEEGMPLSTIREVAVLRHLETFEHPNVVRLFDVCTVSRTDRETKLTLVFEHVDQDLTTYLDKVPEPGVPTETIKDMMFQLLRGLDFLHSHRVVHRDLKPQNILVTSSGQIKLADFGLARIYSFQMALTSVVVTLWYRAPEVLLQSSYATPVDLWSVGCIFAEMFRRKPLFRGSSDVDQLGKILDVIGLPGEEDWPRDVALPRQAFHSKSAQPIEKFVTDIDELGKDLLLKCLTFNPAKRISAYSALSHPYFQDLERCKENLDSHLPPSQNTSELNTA
T1 sequence (P30281 whole entry partner): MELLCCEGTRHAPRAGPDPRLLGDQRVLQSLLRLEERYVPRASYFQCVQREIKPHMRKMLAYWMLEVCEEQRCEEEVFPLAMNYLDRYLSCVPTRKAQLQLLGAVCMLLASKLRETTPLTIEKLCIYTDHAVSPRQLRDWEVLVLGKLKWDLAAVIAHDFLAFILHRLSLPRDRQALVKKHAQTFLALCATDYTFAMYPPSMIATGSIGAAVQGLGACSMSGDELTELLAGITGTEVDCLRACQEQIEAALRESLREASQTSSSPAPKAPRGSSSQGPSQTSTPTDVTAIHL

Structure (SMILES)	IC50 (CDK4-CYCLIND1; [1]) [µM]	IC50 (CDK6-CYCLIND3; [2]) [nM]	IC50 (CDK4-CYCLIND1; CDK4 CyclinD1 IC50 (μM), Table 3a, second value in parentheses on the next line) [µM]	IC50 (CDK4-CYCLIND1; CDK4 CyclinD1 IC50 (μM), Table 3b, second value in parentheses on the next line) [µM]	IC50 (CDK6-CYCLIND3; Table 3a, read-out: CDK6 CyclinD3 IC50) [nM]	IC50 (CDK6-CYCLIND3; Table 3b, read-out: CDK6 CyclinD3 IC50) [nM]
CN1CCCC2(Cc3cnc(Nc4ccc(N5CCNCC5)cn4)nc3N2C2CCCC2)C1=O (stereo not shown) [Compound C25, 7′-cyclopentyl-1-methyl-2′-((5-(piperazin-1-yl)pyridin-2-yl)amino)-5′,7′-dihydrospiro[piperidine-3,6′-pyrrolo[2,3-d]pyrimidin]-2-one]	> 30	> 30000	–	–	–	–
CN(C)C(=O)c1cc2cnc(Nc3ccc(N4CCN(C#N)CC4)cn3)nc2n1C1CCCC1 [Compound C64, 2-((5-(4-cyanopiperazin-1-yl)pyridin-2-yl)amino)-7-cyclopentyl-N,N-dimethyl-7H-pyrrolo[2,3-d]pyrimidine-6-carboxamide]	> 30	> 30000	–	–	–	–
COc1ccc(CN2CCC3(Cc4cnc(Nc5ccc(N6CCN(C(C)C)CC6)cn5)nc4N3C3CCCC3)C2=O)cc1 (stereo not shown) [Compound C31, 7′-cyclopentyl-2′-((5-(4-isopropylpiperazin-1-yl)pyridin-2-yl)amino)-1-(4-methoxybenzyl)-5′,7′-dihydrospiro[pyrrolidine-3,6′-pyrrolo[2,3-d]pyrimidin]-2-one]	7.28	> 30000	–	–	–	–
CN1CCN(c2ccc(Nc3ncc4c(n3)N(C3CCCC3)C3(CCCN(C)C3=O)C4)cc2)CC1 (stereo not shown) [Compound C7, 7′-cyclopentyl-1-methyl-2′-((4-(4-methylpiperazin-1-yl)phenyl)amino)-5′,7′-dihydrospiro[piperidine-3,6′-pyrrolo[2,3-d]pyrimidin]-2-one]	> 30	> 30000	–	–	–	–
CN1CCN(c2ccc(Nc3ncc4c(n3)N(C3CCCCC3)C3(CCNC3=O)C4)cc2)CC1 (stereo not shown) [Compound C199, 7′-cyclohexyl-2′-((4-(4-methylpiperazin-1-yl)phenyl)amino)-5′,7′-dihydrospiro[pyrrolidine-3,6′-pyrrolo[2,3-d]pyrimidin]-2-one]	–	–	0.0332	0.0332	103	103
CC(C)N1CCN(c2ccc(Nc3ncc4c(n3)N(C3CCCC3)C3(CCNC3=O)C4)cc2F)CC1 (stereo not shown) [Compound C49, 7′-cyclopentyl-2′-((3-fluoro-4-(4-isopropylpiperazin-1-yl)phenyl)amino)-5′,7′-dihydrospiro[pyrrolidine-3,6′-pyrrolo[2,3-d]pyrimidin]-2-one]	0.0298	175	–	–	–	–
O=C1NCCC12Cc1cnc(Nc3ccc(C4=CCNCC4)cn3)nc1N2C1CCCC1 (stereo not shown) [Compound C56, 7′-cyclopentyl-2′-((1′,2′,3′,6′-tetrahydro-[3,4′-bipyridin]-6-yl)amino)-5′,7′-dihydrospiro[pyrrolidine-3,6′-pyrrolo[2,3-d]pyrimidin]-2-one]	0.372	803	–	–	–	–
O=C1NCCC12Cc1cnc(Nc3ccc(N4CCC(N5CCOCC5)CC4)c(F)c3)nc1N2C1CCCC1 (stereo not shown) [Compound C97, 7′-cyclopentyl-2′-((3-fluoro-4-(4-morpholinopiperidin-1-yl)phenyl)amino)-5′,7′-dihydrospiro[pyrrolidine-3,6′-pyrrolo[2,3-d]pyrimidin]-2-one]	0.0747	287	–	–	–	–
COc1ccc(CN2CCC3(Cc4cnc(Nc5ccc(N6CCNCC6)cn5)nc4N3C3CCCC3)C2=O)cc1 (stereo not shown) [Compound C29, 7′-cyclopentyl-1-(4-methoxybenzyl)-2′-((5-(piperazin-1-yl)pyridin-2-yl)amino)-5′,7′-dihydrospiro[pyrrolidine-3,6′-pyrrolo[2,3-d]pyrimidin]-2-one]	7.78	> 30000	–	–	–	–
CC(C)N1CC=C(c2ccc(Nc3ncc4c(n3)N(C3CCCC3)C3(CC(=O)NC3=O)C4)nc2)CC1 (stereo not shown) [Compound C94, 7′-cyclopentyl-2′-((1′-isopropyl-1′,2′,3′,6′-tetrahydro-[3,4′-bipyridin]-6-yl)amino)-5′,7′-dihydrospiro[pyrrolidine-3,6′-pyrrolo[2,3-d]pyrimidine]-2,5-dione]	0.0462	45.6	–	–	–	–

Source: patent publication US20230065740A1, “CYCLIN-DEPENDENT KINASE INHIBITORS” (SPV THERAPEUTICS INC., priority 2018, published 2023)
